Data: patent US4012516A, “Pharmacologically active compositions” (Burroughs Wellcome Co., priority 1975, dated 1977)
Read-outs that look alike come from different tables or passages of the source.

Tested on: human chopped lung tissue
Experiment: Inhibition of histamine release from human chopped lung tissue passively sensitized in vitro with reaginic antibody, challenged with homologous antigen
Type: cell-based
Settings: for inhibition at 1 µM: Compound (II) 10^-6 M alone; for inhibition at 0.001 µM: Salbutamol 10^-9 M alone; for inhibition at 0.0001 µM: Salbutamol 10^-10 M alone
Description: The release of histamine from lung preparations treated in this way is known to be inhibited by both the stimulants and the compounds of formula (I) when used separately, but it has now been shown that their combined effect is greater than was to be expected from a knowledge of the activity of the individual components, and in particular the inhibition is greater than the sum of the individual responses when the components are used separately at the same concentrations. The compounds of formula (I) are represented by the formula [drawing 1] wherein Z is carbonyl (C=O) or oxygen (--O--), and X is carboxy or a 5-tetrazolyl group, and salts thereof with pharmaceutically acceptable cations. Of especial value are:
The experimental procedure used was that using chopped human lung tissue substantially as described in Br. Med. J. 3, 272 (1968).

[1] = Homo sapiens, Experiment A, Compound (II) none, read-out: Percentage Inhibition of Histamine Release
[2] = Homo sapiens, Experiment B, Compound (II) none, read-out: Percentage Inhibition of Histamine Release

Row | Compound | Percentage Inhibition of Histamine Release (Experiment A, combination: Compound (II) 10^-6 M + Salbutamol 10^-9 M) | Percentage Inhibition of Histamine Release (Experiment A, combination: Compound (II) 10^-6 M + Salbutamol 10^-10 M) | Percentage Inhibition of Histamine Release (Experiment B, combination: Compound (II) 10^-6 M + Salbutamol 10^-8 M) | Percentage Inhibition of Histamine Release (Experiment B, combination: Compound (II) 10^-6 M + Salbutamol 10^-9 M) | Percentage Inhibition of Histamine Release (Experiment B, combination: Compound (II) 10^-6 M + Salbutamol 10^-10 M) | Percentage Inhibition of Histamine Release (Experiment B, combination: Compound (II) 10^-7 M + Salbutamol 10^-8 M) | Percentage Inhibition of Histamine Release (Experiment B, combination: Compound (II) 10^-7 M + Salbutamol 10^-9 M) | Percentage Inhibition of Histamine Release (Experiment B, combination: Compound (II) 10^-7 M + Salbutamol 10^-10 M) | inhibition at 1 µM (Homo sapiens, Experiment A, Salbutamol none, read-out: Percentage Inhibition of Histamine Release) | inhibition at 1 µM (Homo sapiens, Experiment B, Salbutamol none, read-out: Percentage Inhibition of Histamine Release) | inhibition at 0.1 µM (Homo sapiens, Experiment B, Compound (II) 10^-7 M alone, Salbutamol none, read-out: Percentage Inhibition of Histamine Release) | anti-allergic effect in combination with bronchodilator stimulants (combined with bronchodilators acting directly or indirectly by stimulation) | inhibition at 0.001 µM [1] | inhibition at 0.0001 µM [1] | inhibition at 0.01 µM (Homo sapiens, Experiment B, Salbutamol 10^-8 M alone, Compound (II) none, read-out: Percentage Inhibition of Histamine Release) | inhibition at 0.001 µM [2] | inhibition at 0.0001 µM [2]
1 | O=C1c2ccccc2S(=O)(=O)c2cc(-c3nnn[nH]3)ccc21 [Compound (II), 3-(5-TETRAZOLYL)THIOXANTHONE-10,10-DIOXIDE] | 49% | 58% | 38% | 96% | -11% | 64% | 80.5% | -5% | 15% | -14.5% | -13% | potentiated | – | – | – | – | –
2 | CC(C)(C)NCC(O)c1ccc(O)c(CO)c1 (stereo not drawn) [Salbutamol, α'-t-butylaminomethyl-4-hydroxy-m-xylene-α',α^3-diol, reference compound] | – | – | – | – | – | – | – | – | – | – | – | – | 0% | 17% | 27% | 22% | 0.9%
